Measurements from article PMC4119689, “Investigation of the Interaction between Patulin and Human Serum Albumin by a Spectroscopic Method, Atomic Force Microscopy, and Molecular Modeling” (BioMed Research International, 2014).

Molecular target: T1, human serum albumin (HSA) (Homo sapiens, UniProt P02768)
T1 construct: gene ALB
Test: Trp-214 fluorescence quenching titration (association constant KA at […] K), supported by time-resolved fluorescence, UV-Vis, CD and AFM; quenching described as dynamic
Type: binding
Conditions: read-out: Equation (3) / K A/M^-1 (converted)

T1 sequence (P02768 25-609): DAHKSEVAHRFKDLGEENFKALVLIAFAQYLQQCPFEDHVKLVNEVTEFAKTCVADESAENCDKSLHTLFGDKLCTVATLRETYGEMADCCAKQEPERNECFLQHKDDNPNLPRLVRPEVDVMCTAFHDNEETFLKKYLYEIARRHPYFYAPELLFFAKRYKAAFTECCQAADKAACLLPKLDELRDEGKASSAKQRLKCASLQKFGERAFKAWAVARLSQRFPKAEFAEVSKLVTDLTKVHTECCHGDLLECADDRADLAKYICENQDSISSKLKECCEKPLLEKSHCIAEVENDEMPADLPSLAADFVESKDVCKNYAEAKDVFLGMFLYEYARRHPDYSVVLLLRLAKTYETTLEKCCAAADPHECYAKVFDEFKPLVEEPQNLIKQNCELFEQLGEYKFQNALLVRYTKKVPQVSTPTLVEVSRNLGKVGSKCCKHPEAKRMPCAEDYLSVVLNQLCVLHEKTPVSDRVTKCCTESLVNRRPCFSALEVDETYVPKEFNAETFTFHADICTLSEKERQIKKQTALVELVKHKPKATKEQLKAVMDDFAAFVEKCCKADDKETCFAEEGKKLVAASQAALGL

## O=C1C=C2C(=CCOC2O)O1 (stereo not shown) [patulin]
  Kd: 38.5 µM
